According to article PMC10501326, “A Phase I Study of the Pan-Notch Inhibitor CB-103 for Patients with Advanced Adenoid Cystic Carcinoma and Other Tumors” (Cancer Research Communications, 2023):

Legend:
[1] = system: myeloma cell lines; set-up: method as in PMID 21159606; details: cited from earlier work
[2] = system: advanced solid tumors, adenoid cystic carcinoma (ACC); assay: Antitumor efficacy and survival (RECIST v1.1 response, CBR, PFS, OS); assay type: in vivo, human
Text: The study enrolled adults with histologically confirmed, locally advanced and/or metastatic solid tumors who had progressed on at least one line of prior systemic therapy (except for ACC) and relapsed/refractory T-ALL/LBL for whom no standard therapy was available. In dose escalation, participants with solid tumors with known or frequent Notch pathway–activating mutations were eligible (breast cancer, gastrointestinal tumors, hepatocellular carcinoma, osteosarcoma, malignant glomus tumor, and ACC), while the confirmatory cohort planned to enroll participants with selected tumor types (including T-ALL/LBL) and confirmed Notch pathway activation. Key eligibility criteria included patients ≥18 years of age with evaluable disease, Eastern Cooperative Oncology Group (ECOG) performance status 0–1, able to swallow capsules, and adequate organ function. Participants were excluded if they had clinically significant cardiac disease or thromboembolic events within the preceding 6 months, and drugs prolonging the QTc were avoided. A complete list of eligibility criteria is outlined in the Supplementary Materials and Methods.
Safety was assessed via monitoring of DLTs during the first treatment cycle, and of AEs, physical exam, and clinical lab results (hematology, coagulation, blood chemistry, urinalysis, and cardiac markers) throughout the study (Supplementary Table S1). 12-lead electrocardiograms and Holter safety monitoring with periodic cardiac imaging was employed. Efficacy assessments used RECIST v1.1 applied to CT/MRI scans performed at screening and every 8 weeks; or evaluated complete remission with complete hematologic recovery by National Comprehensive Cancer Network guideline criteria for T-ALL/T-LBL. Adherence to study drug administration was evaluated using both patient diaries and capsule counts.
The primary endpoint for dose escalation was the number of patients experiencing DLT during the first 28-day cycle of CB-103 and for the confirmatory phase, the incidence rate, severity, and relationship of AEs to CB-103. Secondary endpoints included assessment of clinical benefit rate [CBR; defined as achieving complete and/or partial response and/or stable disease (SD) at prespecified benchmarks], duration of response, progression-free survival (PFS) and overall survival (OS), and plasma pharmacokinetics.
The objective of the BLRM design ([10]) was to determine the MTD defined as the highest dose with less than 25% risk of the true DLT rate being above 33%. The MTD was considered reached if one of the following criteria was fulfilled: (i) if the posterior probability of the true DLT rate in the target interval (16%–33%) of the MTD was >50%, and (ii) at least 6 patients were treated at the MTD. Under this model, and accounting for dropouts and some additional patients enrolled to each cohort, approximately 55 patients were anticipated to enroll in dose escalation and approximately 45 patients in the confirmatory phase. Data were reported using 95% confidence intervals (CI) and survival endpoints (PFS, OS) are reported from the time of first treatment to the first of progression or death summarized by Kaplan–Meier estimates. All statistical analyses were analyzed using SAS v9.4 software.

[3] = Phase I/II safety and tolerability: DLTs and treatment-related adverse events (CTCAE v4.03); assay type: in vivo; details: added to CB-103; one patient
Text: The study was an open-label, nonrandomized, phase I/II dose-escalation study with planned expansion cohorts. […] Part B was a potential expansion phase at the MTD/RP2D to determine preliminary evidence of antitumor activity and to confirm safety among patients stratified by preselected cancer indications.
Part A was based on a two-parameter Bayesian logistic regression model (BLRM) to investigate safety and tolerability of sequentially enrolled dose cohorts of 3–6 patients. The first 2 participants of each cohort were enrolled in a staggered approach with at least 1 day apart between first dosing.
12-lead electrocardiograms and Holter safety monitoring with periodic cardiac imaging was employed. Efficacy assessments used RECIST v1.1 applied to CT/MRI scans performed at screening and every 8 weeks; or evaluated complete remission with complete hematologic recovery by National Comprehensive Cancer Network guideline criteria for T-ALL/T-LBL. Adherence to study drug administration was evaluated using both patient diaries and capsule counts.
Secondary endpoints included assessment of clinical benefit rate [CBR; defined as achieving complete and/or partial response and/or stable disease (SD) at prespecified benchmarks], duration of response, progression-free survival (PFS) and overall survival (OS), and plasma pharmacokinetics.
The SS was the primary population for all safety and efficacy analyses, except for determination of dose-DLT relationship.
Under this model, and accounting for dropouts and some additional patients enrolled to each cohort, approximately 55 patients were anticipated to enroll in dose escalation and approximately 45 patients in the confirmatory phase. […] All statistical analyses were analyzed using SAS v9.4 software.

[4] = advanced ACC population; cited from earlier work
[5] = system: NOTCH-mutated advanced ACC; details: 77 patients, cited from earlier work

CN(C)CC[C@H](CSc1ccccc1)Nc1ccc(S(=O)(=O)NC(=O)c2ccc(N3CCN(Cc4ccccc4-c4ccc(Cl)cc4)CC3)cc2)cc1[N+](=O)[O-] [ABT-737]
Effect of combining with a GSI [1]: synergism

CC1(C)CCC(CN2CCN(c3ccc(C(=O)NS(=O)(=O)c4ccc(NCC5CCOCC5)c([N+](=O)[O-])c4)c(Oc4cnc5[nH]ccc5c4)c3)CC2)=C(c2ccc(Cl)cc2)C1 [Venetoclax, reference compound]
Effect of off-label addition to CB-103 after first progression ([2]; 1 patient with NOTCH1-activating metastatic ACC and tumor BCL2 overexpression): additional tumor growth stabilization | Further disease stabilization, additional time ([2]; off-label, added to CB-103 upon signs of disease progression, one patient, NOTCH1-activated metastatic ACC, BCL2 overexpression): 3.5 months | Tolerance in combination [3]: good tolerance

CNC(=O)c1ccccc1Sc1ccc2c(/C=C/c3ccccn3)n[nH]c2c1 [axitinib]
Discontinuation rates for toxicity [4]: ≥ 20%

CN1C(=O)[C@@H](NC(=O)[C@H](CCC(F)(F)F)[C@H](CCC(F)(F)F)C(N)=O)N=C(c2ccccc2)c2ccccc21 [AL101]
Disease control rate ([5]; benchmark not reported): 69% | Partial response rate [5]: 12% | Patients exhibiting SD [5]: 57%
